According to patent US11376234B2, “Ammonia metabolism promoter” (Kao Corporation, priority 2018, dated 2022):
Marks after values point to notes of the source that are not given here.

Experiments:
[1] = system: primary cultured hepatocytes; assay: Urea production of hepatocytes with citrulline and arginine (Reference Example); assay type: cell-based; details: 5 mM ammonium chloride, 24 hours; Arg+Cit 0.5 mM each, Cit 1 mM; vs control
Description: Cells were recovered from the liver of each mouse and dead cells were removed, in the same procedure as in Example 1. Thereafter, cells were suspended in a DMEM medium, seeded at 10^5 cells/well in a 24-well plate, and cultured.
The cells 24 hours after seeding were washed twice with PBS. Thereafter, the medium was replaced with an FBS, arginine, leucine free DMEM medium (D9443, Sigma), and 5 mM of ammonium chloride (control), ammonium chloride+0.5 mM of L-arginine+0.5 mM of L-citrulline (Arg+Cit), or ammonium chloride+1 mM of L-citrulline (Cit) was added thereto. The culture supernatant was collected 24 hours later, and the urea contained therein was quantitatively determined with QuantiChrom Urea Assay Kit (BioAssay Systems).

[2] = system: primary hepatocytes; assay: Amount of change in ammonia in culture medium of primary hepatocytes (Example 2); assay type: cell-based, mouse; details: for Ammonia change amount in culture medium, Increasing rate relative to control (%): 5 mM ammonium chloride, 24 hours, control = 100; for amount of change in ammonia in the culture medium relative to the control (in words): Dunnett's test, n=4
Description: For cells, a hepatocyte culture kit (derived from a 10-week-old male Balb/c mouse, 24 wells, 1×10^5 cells/well, Cosmo Bio) was used. A final concentration of 5 mM of ammonium chloride (015-02991, Wako) and 1.4 μM or 4.2 μM of the following catechins (EGC, Cg or ECg) were added to a medium containing high glucose DMEM (31053028, Gibco) containing GlutaMAX (35050-061, Gibco), penicillin/streptomycin (168-23191, Wako) and ascorbic acid (014-04801, Wako), and the cells were cultured therein: EGC (NH020203, Nagara Science Co., Ltd.); Cg (NH 021302, Nagara Science Co., Ltd.); and ECg (NH 020302, Nagara Science Co., Ltd.). Cells cultured in a medium without any added catechins were used as a control. The culture supernatant was collected 24 hours later, and the ammonia contained therein was quantitatively determined using an ammonia assay kit (Abcam). The decrement in the ammonia amount in the culture medium 24 hour after addition of ammonium chloride and catechins relative to the ammonia amount at the time of addition was defined as an amount of change in ammonia in the culture medium.
Each value in Table 1 represents the increasing rate of the amount of change in ammonia relative to that of the control. The statistical processing was performed by using multigroup comparison by Dunnett's test for n=4 per group (**: p <0.001, *: p<0.05).

Molecule	amount of urea production by hepatocytes [1]	Ammonia change amount in culture medium, Increasing rate relative to control (%) ([2]; 4.2 μM)	Ammonia change amount in culture medium, Increasing rate relative to control (%) ([2]; 1.4 μM)	amount of change in ammonia in the culture medium relative to the control (in words) ([2]; 4.2 μM)
NC(=O)NCCC[C@H](N)C(=O)O [Cit, L-citrulline]	significantly increased	–	–	–
O=C(O[C@@H]1Cc2c(O)cc(O)cc2O[C@@H]1c1ccc(O)c(O)c1)c1cc(O)c(O)c(O)c1 [ECg, epicatechin gallate]	–	126%	–	–
Oc1cc(O)c2c(c1)O[C@H](c1cc(O)c(O)c(O)c1)[C@H](O)C2 [EGC, epigallocatechin]	–	186** %	122	significantly increases
catechin gallate [Cg]	–	174* %	–	significantly increases
